{
  "source": "patent US20150159167A1",
  "about": "“Plants Tolerant to HPPD Inhibitor Herbicides” (Bayer CropScience AG, priority 2009, published 2015)",
  "key": {"[1]": {"system": "Synechococcus sp. HPPD \"SEQ ID No. 5\"", "assay": "HPPD activity in presence of HPPD inhibitors (pI50, % inhibition)", "type": "biochemical", "excerpt": "In this content, pI50-value means the log value of the concentration of inhibitor necessary to inhibit 50% of the enzyme activity in molar concentration."}, "[2]": {"system": "T1 tobacco plants containing FMP38e (Synechococcus sp. HPPD FMP38)", "assay": "Glasshouse trial, herbicidal damage after spray", "type": "in vivo, Nicotiana tabacum", "conditions": "7 DAT, 100 gAI/ha spray", "experimental": "T0 Tobacco plants containing either the gene from Arabidopsis coding for HPPD or the gene FMP38e from Synechococcus sp. coding for FMP38 HPPD, mentioned above (Example3), were transferred to the glasshouse (28/20° C.), to develop further and produce seeds. Those seeds were harvested and put on soil (ED73 mixed with sand and osmocote Pro) to germinate in the glasshouse (28/20° C.). Three to four weeks later, plantlets were transferred to single pots containing the soil mentioned above. Two weeks later, plants of a size 4-6 cm diameter were sprayed with either • tembotrione at 100 gAI/ha prepared from a WP20 (wettable powder 20%) formulation supplemented with ammonium sulfate and methyl ester raps oil, or • isoxaflutole at 100 gAI/ha prepared from a WP20 formulation supplemented with ammonium sulfate and methyl ester raps oil, or • “blind formulation” made from a WP20 formulation without active ingredient (AI) supplemented with ammonium sulfate and methyl ester raps oil, and were then transferred to a growth chamber with adequate light conditions (20000 Lux). […]"}, "[3]": {"system": "T0 tobacco plants containing FMP38t", "assay": "Response of T0 tobacco plants expressing the FMP38 HPPD to tembotrione", "type": "in vivo, Nicotiana tabacum", "conditions": "100 g AI/ha, two weeks after the treatment", "excerpt": "As an example, rooted plants containing the T-DNA PromCaMV35S-OTP-HIS6-FMP38t-TerCaMV35S, will be transferred to the greenhouse under standard growth conditions. Following a period of acclimation of two weeks, the T0 plants will be treated with a mixture containing 100 g tembotrione/ha prepared from a WP20 (wettable powder 20%) formulation supplemented with ammonium sulfate and methyl ester raps oil. Two weeks after the treatment, the symptoms due to the application of the herbicides will be evaluated. The plants are classified in four categories. The treated plants evaluated as “0” are looking like the untreated tobacco plants. The plants evaluated as “1” display temporarily light bleaching phenotype due to the application of the herbicides. The plants evaluated as “2” display permanent light to strong bleaching symptoms. Finally the plants evaluated as “3” are looking like wild type tobacco plants submitted to the same treatment."}, "[4]": {"system": "T0 rice plants containing FMP38e", "assay": "Rice glasshouse trial, response to tembotrione", "type": "in vivo", "conditions": "100 g AI/ha, 7 DAT", "experimental": "T0 rooted plantlets (either selected on phosphinothricin alone or on phosphinothricin supplemented with tembotrione) were transferred to soil in the glasshouse. Following an acclimation period, sufficiently grown plants were treated with the different HPPD inhibitor herbicides. As an example, T0 plants were sprayed with tembotrione of formulation type WP20 100 g AI/ha supplemented with ammonium sulfate and methyl ester raps oil. Seven days after the spray application, the symptoms due to the application of the herbicide were evaluated and compared the symptoms observed on wild type plants submitted to the same treatment.\nThe plants were classified in three categories based on the phenotype developed in response to the herbicide seven days after the treatment."}},
  "note": "Several values for one entry are separate records, joined by “and”; a condition that tells them apart may be missing. Equal values may be shown once.",
  "data": [
    {"smiles": "CS(=O)(=O)c1ccc(C(=O)C2C(=O)CCCC2=O)c(Cl)c1COCC(F)(F)F", "note": "[Tembotrione, 2-[2-chloro-4-(methylsulfonyl)-3-[(2,2,2,-tri-fluoroethoxy)methyl]benzoyl]-1,3-cyclo-hexanedione]", "values": [
      {"measurement": "pI50", "setting": "[1]; 2 mM HPP, 3 minutes incubation", "value": 5.6},
      {"measurement": "percentage of inhibition", "setting": "[1]; 5.0 × 10^−6 M inhibitor, compared to activity in absence of inhibitor", "value": 79, "unit": "%"},
      {"measurement": "% injury", "setting": "[2]; line 34, one value per plant", "value": 30, "unit": "%"},
      {"measurement": "% injury", "setting": "[2]; line 39, one value per plant", "value": "0% and 5%"},
      {"measurement": "number of plants in category 0 (looking like the untreated tobacco plants)", "setting": "[3]", "value": 1},
      {"measurement": "number of plants in category 1 (temporarily light bleaching phenotype)", "setting": "[3]", "value": 1},
      {"measurement": "number of plants in category 3 (looking like wild type tobacco plants submitted to the same treatment)", "setting": "[3]", "value": 14},
      {"measurement": "Class I (no injuries), number of plants", "setting": "[4]", "value": 9},
      {"measurement": "Class II (injury: 10-40%), number of plants", "setting": "[4]", "value": 8},
      {"measurement": "Class III (injury: 41-100%), number of plants", "setting": "[4]", "value": 8}
    ]}
  ]
}
